Patent publication US20220023381A1, “VDAC INHIBITORS FOR TREATING AUTOIMMUNE DISEASES” (NATIONAL INSTITUTE FOR BIOTECHNOLOGY IN THE NEGEV LTD., priority 2018, published 2022)
Values belong to the compound of their own block, whether it stands above or below them. No end group written: not given here.

Assays:
[1] = test system: mtDNA (120 bp); assay: mtDNA-peptide binding (pull-down) assay; parameters: species or system mouse; details: biotinylated peptide, Streptavidin Dynabeads
Text: C-terminal biotinylated peptides corresponding to amino acid residues from 1 to 26 of mouse VDAC1 (SEQ ID NO:1) and a mutant peptide (SEQ ID NO:72) with acetylation (N-terminus) and amidation (C-terminus) were synthesized and purified by Genscript (Piscataway, N.J., USA). Mitochondrial DNA was amplified using PCR with mtDNA specific primer of the D-loop region. The primers used were as follow (5′-3′): mtDNA 120 bp forward (SEQ ID NO:73), and reverse (SEQ ID NO:74). Purified mtDNA (120 bp) was incubated rotating end-over-end with peptides and Streptavidin Dynabeads (Invitrogen) for 18 h at 4° C. The peptides were captured by the Streptavidin Dynabeads, and unbound peptides and free mtDNA were removed by extensive washing with PBS. The samples were treated with proteinase K for 30 min at 60° C., and the mtDNA in the supernatant was purified with QIAquick Nucleotide Removal Kit (Qiagen). The purified mtDNA was quantified using real-time RT-PCR with the D-loop3 primers.

[2] = test system: TFAM^KD MEFs; assay: ISG expression in TFAM KD MEFs; format: cell-based, mouse
Description: The following mouse embryonic fibroblasts (MEFs) were used: VDAC1/3^−/− (MEFs) and Bak/Bax^−/− MEFs with the respective WT counterparts; WT and cGAS^−/− MEFs; WT and IRF3/IRF7^−/− MEFs; and WT and MICU1^−/− MEFs. All MEFs were grown in complete Dulbecco's modified Eagle's medium (DMEM, Corning) supplemented with 10% fetal bovine serum (FBS, Sigma-Aldrich) and 1% penicillin and streptomycin (antibiotics, Gibco) at 37° C. with 5% CO2. LMTK-1 cells were grown in complete RPMI 1640 medium (Gibco) supplemented with 10% FBS and antibiotics. The LMTK^−-derived cell line lacking mtDNA (ρ^o), LMEB-4, was grown in LMTK-1 growth medium supplemented with uridine (50 μg/ml, Sigma-Aldrich) and sodium pyruvate (1 mM, Gibco). WT (ρ^o) and EndoG^−/− (ρ^o) MEFs were generated by incubation with ethidium bromide (Invitrogen) in complete DMEM supplemented with 15% FBS, antibiotics, uridine (50 μg/ml), and pyruvate (1 mM) for 5 months. […]
Total RNA was extracted using RNeasy Plus Mini Kit (Qiagen) according to the manufacturer's instructions. […] GAPDH was used as an internal standard of mRNA expression, and the ratio of the target gene expression to GAPDH expression was calculated using LightCycler 96 Instrument software (Roche). The quality of real-time RT-PCR results was evaluated based on the melting temperature (Tm) of a DNA fragment and melting curve analysis. […]

[3] = test system: VDAC1/3−/− MEFs; assay: ISG expression in VDAC1/3−/− MEFs; format: cell-based, mouse; details: treatment with Ca2+ chelator BAPTA
Description: (§1) The following mouse embryonic fibroblasts (MEFs) were used: VDAC1/3^−/− (MEFs) and Bak/Bax^−/− MEFs with the respective WT counterparts; WT and cGAS^−/− MEFs; WT and IRF3/IRF7^−/− MEFs; and WT and MICU1^−/− MEFs. All MEFs were grown in complete Dulbecco's modified Eagle's medium (DMEM, Corning) supplemented with 10% fetal bovine serum (FBS, Sigma-Aldrich) and 1% penicillin and streptomycin (antibiotics, Gibco) at 37° C. with 5% CO2. LMTK-1 cells were grown in complete RPMI 1640 medium (Gibco) supplemented with 10% FBS and antibiotics. The LMTK^−-derived cell line lacking mtDNA (ρ^o), LMEB-4, was grown in LMTK-1 growth medium supplemented with uridine (50 μg/ml, Sigma-Aldrich) and sodium pyruvate (1 mM, Gibco). WT (ρ^o) and EndoG^−/− (ρ^o) MEFs were generated by incubation with ethidium bromide (Invitrogen) in complete DMEM supplemented with 15% FBS, antibiotics, uridine (50 μg/ml), and pyruvate (1 mM) for 5 months.
(§2) Total RNA was extracted using RNeasy Plus Mini Kit (Qiagen) according to the manufacturer's instructions. […] GAPDH was used as an internal standard of mRNA expression, and the ratio of the target gene expression to GAPDH expression was calculated using LightCycler 96 Instrument software (Roche). The quality of real-time RT-PCR results was evaluated based on the melting temperature (Tm) of a DNA fragment and melting curve analysis.

[4] = test system: EndoG−/− MEFs; assay: ISG expression in EndoG−/− MEFs (real-time PCR / western blot); format: cell-based, mouse
Description: Total RNA was extracted using RNeasy Plus Mini Kit (Qiagen) according to the manufacturer's instructions. The first-strand cDNA was synthesized from 2 μg purified mRNA using Accupower RT PreMix (BioNeer). The reaction mixtures were incubated at 42° C. for 60 min and 94° C. for 5 min. Real-time RT-PCR was performed using the LightCycler 96 system (Roche Life Science) with SYBR Green master mix (Roche). The primers used were as follow (5′-3′): EndoG forward (SEQ ID NO:36), and reverse (SEQ ID NO:37); Cxcl10 forward (SEQ ID NO:38), and reverse (SEQ ID NO:39); GAPDH forward (SEQ ID NO:40), and reverse (SEQ ID NO:41); Ifi44 forward (SEQ ID NO:42), and reverse (SEQ ID NO:43); Ifit1 forward (SEQ ID NO:44), and reverse (SEQ ID NO:45); Ifit3 forward (SEQ ID NO:46), and reverse (SEQ ID NO:47); IFNα4 forward (SEQ ID NO:48), and reverse (SEQ ID NO:49); IFNβ forward (SEQ ID NO:50), and reverse (SEQ ID NO:51); Iigp1 forward (SEQ ID NO:52), and reverse (SEQ ID NO:53); ISG15 forward (SEQ ID NO:54), and reverse (SEQ ID NO:55); Oasl2 forward (SEQ ID NO:56), and reverse (SEQ ID NO:57); Rsad2 forward (SEQ ID NO:58), and reverse (SEQ ID NO:59); USP18 forward (SEQ ID NO:60), and reverse (SEQ ID NO:61); VDAC1 forward (SEQ ID NO:62), and reverse (SEQ ID NO:63). GAPDH was used as an internal standard of mRNA expression, and the ratio of the target gene expression to GAPDH expression was calculated using LightCycler 96 Instrument software (Roche). The quality of real-time RT-PCR results was evaluated based on the melting temperature (Tm) of a DNA fragment and melting curve analysis.

[5] = test system: mitochondria from MICU1−/− MEFs; assay: mtDNA release from isolated mitochondria of MICU1−/− MEFs; parameters: species or system mouse; details: buffer lacking Ca2+, with or without DIDS
Description: Therefore, it was postulated that VDAC may be increasing mtDNA release in living cells merely by increasing mitochondrial Ca^2+ and promoting PTP formation. To examine this possibility, mitochondria from MICU1^−/− MEFs, which already have elevated Ca^2+ and ROS levels (FIG. 6F), were isolated and incubated in a buffer lacking Ca^2+ either with or without DIDS.

[6] = test system: LMEB-4 (ρ0) cells; assay: Ifi44 expression in LMEB-4 (ρ0) cells lacking mtDNA; format: cell-based; details: 100 μM DIDS
Description: as §1, §2

[7] = test system: MICU1−/− MEFs; assay: ISG induction in MICU1−/− MEFs; format: cell-based, mouse; details: treatment with DIDS
Description: as §1, §2

[8] = test system: LMTK-1 (WT) cells; assay: Ifi44 expression in LMTK-1 (WT) cells; format: cell-based; details: 100 μM DIDS
Description: as §1, §2

[9] = test system: 143B cells; assay: Quantification of fimtDNA (free intra-mtDNA fragments); format: cell-based
Description: For the quantification of fimtDNA release, 143B cells were resuspended in mitochondrial isolation buffer and subsequently homogenized 30 times with pestle B (small clearance). The homogenized samples were centrifuged at 1,000 g for 10 min at 4° C. The supernatant was transferred to a new tube and centrifuged at 1,000 g for 5 min at 4° C., and the mitochondrial pellet was collected after the centrifugation of the final supernatant at 11,500 g for 10 min at 4° C. Isolated mitochondria were resuspended in 50 μl CSK buffer containing 10 mM PIPES pH 6.8, 300 mM sucrose, 100 mM NaCl, 3 mM MgCl2, 1 mM EGTA, and 0.05% Triton X-100, for 5 min on ice, and the supernatant (fimtDNA) and CSK-pellet fractions were collected after centrifugation at 17,000 g for 30 min at 4° C. A 1:20 dilution of CSK-sup was used for real-time PCR with fimtDNA primers in each reaction. The primers used were as follow (5′-3′): hfimtNDA forward (SEQ ID NO:70), and reverse (SEQ ID NO:71). CSK-pellet was resuspended in 100 μl lysis buffer containing 20 mM EDTA and proteinase K and incubated at 56° C. overnight. The digested pellet was diluted with water (1:20 to 1:100) and heated at 95° C. for 20 min to inactivate proteinase K, and the CSK-pellet fraction was used for real-time PCR in each reaction. The fimtDNA in CSK-sup was normalized to the mtDNA in CSK-pellet.

[10] = test system: EndoG−/− MEFs; assay: ROS levels in EndoG−/− MEFs; format: cell-based, mouse; details: Mito-TEMPO (10 μM), 3 days
Description: Cellular cGAMP levels were measured by LC/MS (Agilent Technologies) using 5% perchloric acid extracts of WT and EndoG^−/− MEFs. Intracellular ROS production in MEFs was measured using the oxidative stress indicator CM-H2DCFDA (Invitrogen) with flow cytometry (FACS). Mitochondrial ROS in MEFs was evaluated using the mitochondrial superoxide indicator MitoSOX (Invitrogen) with a confocal microscope (LSM880, Zeiss, and the fluorescence intensity was measured using Zen software (Zeiss). To quantify mitochondrial ROS in human PBMCs, the cells were obtained from heparinized blood using a Ficoll-Paque gradient. The cells were washed with PBS, resuspended in RPMI 1640 medium, and transferred to 96-well plates. Subsequently, the cells were stimulated with calcium ionophore A23187 (25 μM), VBIT-4 (5 μM), and MitoSOX (2 μM) (Life Technologies). After 1 h at 37° C., the fluorescence was measured at 510/595 nm using a microplate reader (Synergy HTX; BIOTEK). Cells without dye were used as the blank control.

[11] = treatment with Ca2+ chelator BAPTA
[12] = DIDS (100 μM), real-time PCR and western blot

Compound: 26 amino acid VDAC1 N-terminal peptide: C-terminal biotinylated peptide corresponding to amino acid residues 1 to 26 of mouse VDAC1 (MAVPPTYADLGKSARDVFTKGYGFGL-biotin)
- pull-down of mtDNA fragment [1]: pulled-down the mtDNA fragment in dose-dependent manner

- ISG expression [2, 11]: decreased
Compound: O=C(O)CN(CC(=O)O)c1ccccc1OCCOc1ccccc1N(CC(=O)O)CC(=O)O [BAPTA]
- ISG expression [3]: not
- ISG expression [4, 11]: decreased

Compound: O=S(=O)(O)c1cc(N=C=S)ccc1C=Cc1ccc(N=C=S)cc1S(=O)(=O)O [DIDS, 4,4′-Diisothiocyanatostilbene-2,2′-disulfonate]
- ISG expression [2, 12]: inhibited
- mtDNA released during incubation [5]: decreased in a concentration-dependent manner
- ISG expression [4, 12]: inhibited
- ISG (Ifi44) expression [6]: not
- ISG induction [7]: abrogated
- ISG (Ifi44) expression [8]: inhibited

Compound: CO[C@H]1C[C@@H]2CC[C@@H](C)[C@@](O)(O2)C(=O)C(=O)N2CCCC[C@H]2C(=O)O[C@H]([C@H](C)C[C@@H]2CC[C@@H](OCCO)[C@H](OC)C2)CC(=O)[C@H](C)/C=C(\C)[C@@H](O)[C@@H](OC)C(=O)[C@H](C)C[C@H](C)/C=C/C=C/C=C/1C [everolimus]
- fimtDNA ([9]; 100 nM everolimus): decreased

Compound: CC1(C)CC(NC(=O)C[P+](c2ccccc2)(c2ccccc2)c2ccccc2)CC(C)(C)N1[O] [mito-TEMPO]
- ISG expression ([4]; Mito-TEMPO (10 μM), 3 days): reduced
- mROS [10]: reduced
- fimtDNA ([9]; 50 nM mito-TEMPO): decreased

Compound: VDAC1 N-terminal mutant peptide: VDAC1 N-terminal peptide in which K12, R15, K20 were changed to Ala (MAVPPTYADLGASAADVFTAGYGFGL)
- pull-down of mtDNA fragment [1]: not
